From patent US9382254B2, “Compounds and pharmaceutical compositions thereof for the treatment of cystic fibrosis” (Galapagos NV, priority 2013, dated 2016)

Tests used:
Assay type in all cases: cell-based
CFTR ΔF508 mutant = biological target: T1, CFTR ΔF508 mutant (Homo sapiens, UniProt P13569, DEL508-508); test: YFP-halide influx assay for the CFTR-ΔF508 mutation (384 well, FDSS/μCell); conditions: CFBE41o- cells, CFTR-ΔF508, 1×D-PBS, fluorescence after 36 seconds
T1 construct: expressed in transfected cells; host or cells: CFBE41o- (adenoviral transduction)
Method in brief: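 Potentiator read-out as 1−F/F0, F taken 36 s after iodide addition, EC50 fitted against compound concentration. Cells: CFBE41o- expressing ΔF508 CFTR plus halide-sensitive YFP via adenovirus, rescued by 27 °C for 24 h or 24 h modulator at 37 °C.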

CFTR G551D mutant = biological target: T2, CFTR G551D mutant (Homo sapiens, UniProt P13569, G551D); test: YFP-halide influx assay for the CFTR-G551D mutation; conditions: HEK293 cells, forskolin 10.67 μM
T2 construct: expressed in transfected cells; host or cells: HEK293 (reverse transfection with plasmid)
Method in brief: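 Channel opening potentiation measured as 1−F/F0, where F is YFP fluorescence 7 s after iodide injection and F0 before; EC50 taken from concentration plot. Cells: HEK293 transiently expressing CFTR G551D plus halide-sensitive YFP (H148Q, I152L, F47L), 24 h at 37 °C, 5% CO2.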

CFTR-G178R = biological target: T3, CFTR-G178R (Homo sapiens, UniProt P13569, G178R); test: YFP-halide influx assay for the CFTR-G178R
T3 construct: expressed in transfected cells
From the text: (§1) The YFP halide influx assay measures the functionality of the cystic fibrosis Transmembrane Conductance regulator (CFTR) channels. The assay is used to evaluate the capacity of compounds to increase the channel opening of existing mutant CFTR channels in the membrane. It makes use of the observation that the yellow fluorescent protein (YFP) variant YFP H148Q, I152L, […] has its fluorescence substantially quenched by halide ions like Cl^− and I^−. (Galietta, Haggie, & Verkman, 2001)
(§2) For this purpose, HEK293-cells are seeded in 96 well plates. During seeding, the cells are reverse-transfected with plasmid vectors that direct the expression of the CFTR G551D mutant and of the YFP reporter. Cells are incubated at 37° C., 5% CO2 for 24 hours so as to allow for sufficient expression of the CFTR protein.
(§3) The I^−-induced quenching of fluorescence is recorded immediately after injection of I^− for 7 seconds. The capacity of a compound to increase the channel opening is directly correlated with the decrease in fluorescence, and is expressed as (1-(fluorescence after 7 seconds (F)/fluorescence before injection (F0))) and an EC50 can be derived from a (1-F/F0) vs compound concentration plot.
(§4) Similar YHA assays were developed for other channel gating defective or channel conductance defective CFTR mutants to determine effect of compound on channel activity. Examples of mutants are G178R, G1349D, S549N, R117H, R334W. This assay is also used for additional class I CFTR mutants, including G542X, W1282X; class II mutants including N1303K, and for class III mutants including S1251N.

CFTR-G1349D = biological target: T4, CFTR-G1349D (Homo sapiens, UniProt P13569, G1349D); test: YFP-halide influx assay for the CFTR-G1349D
T4 construct: expressed in transfected cells
From the text: as §1, §2, §3, §4

CFTR-S549N = biological target: T5, CFTR-S549N (Homo sapiens, UniProt P13569, S549N); test: YFP-halide influx assay for the CFTR-S549N
T5 construct: expressed in transfected cells
From the text: as §1, §2, §3, §4

CFTR-R117H = biological target: T6, CFTR-R117H (Homo sapiens, UniProt P13569, R117H); test: YFP-halide influx assay for the CFTR-R117H
T6 construct: expressed in transfected cells
From the text: as §1, §2, §3, §4

T3 sequence (P13569 whole entry G178R): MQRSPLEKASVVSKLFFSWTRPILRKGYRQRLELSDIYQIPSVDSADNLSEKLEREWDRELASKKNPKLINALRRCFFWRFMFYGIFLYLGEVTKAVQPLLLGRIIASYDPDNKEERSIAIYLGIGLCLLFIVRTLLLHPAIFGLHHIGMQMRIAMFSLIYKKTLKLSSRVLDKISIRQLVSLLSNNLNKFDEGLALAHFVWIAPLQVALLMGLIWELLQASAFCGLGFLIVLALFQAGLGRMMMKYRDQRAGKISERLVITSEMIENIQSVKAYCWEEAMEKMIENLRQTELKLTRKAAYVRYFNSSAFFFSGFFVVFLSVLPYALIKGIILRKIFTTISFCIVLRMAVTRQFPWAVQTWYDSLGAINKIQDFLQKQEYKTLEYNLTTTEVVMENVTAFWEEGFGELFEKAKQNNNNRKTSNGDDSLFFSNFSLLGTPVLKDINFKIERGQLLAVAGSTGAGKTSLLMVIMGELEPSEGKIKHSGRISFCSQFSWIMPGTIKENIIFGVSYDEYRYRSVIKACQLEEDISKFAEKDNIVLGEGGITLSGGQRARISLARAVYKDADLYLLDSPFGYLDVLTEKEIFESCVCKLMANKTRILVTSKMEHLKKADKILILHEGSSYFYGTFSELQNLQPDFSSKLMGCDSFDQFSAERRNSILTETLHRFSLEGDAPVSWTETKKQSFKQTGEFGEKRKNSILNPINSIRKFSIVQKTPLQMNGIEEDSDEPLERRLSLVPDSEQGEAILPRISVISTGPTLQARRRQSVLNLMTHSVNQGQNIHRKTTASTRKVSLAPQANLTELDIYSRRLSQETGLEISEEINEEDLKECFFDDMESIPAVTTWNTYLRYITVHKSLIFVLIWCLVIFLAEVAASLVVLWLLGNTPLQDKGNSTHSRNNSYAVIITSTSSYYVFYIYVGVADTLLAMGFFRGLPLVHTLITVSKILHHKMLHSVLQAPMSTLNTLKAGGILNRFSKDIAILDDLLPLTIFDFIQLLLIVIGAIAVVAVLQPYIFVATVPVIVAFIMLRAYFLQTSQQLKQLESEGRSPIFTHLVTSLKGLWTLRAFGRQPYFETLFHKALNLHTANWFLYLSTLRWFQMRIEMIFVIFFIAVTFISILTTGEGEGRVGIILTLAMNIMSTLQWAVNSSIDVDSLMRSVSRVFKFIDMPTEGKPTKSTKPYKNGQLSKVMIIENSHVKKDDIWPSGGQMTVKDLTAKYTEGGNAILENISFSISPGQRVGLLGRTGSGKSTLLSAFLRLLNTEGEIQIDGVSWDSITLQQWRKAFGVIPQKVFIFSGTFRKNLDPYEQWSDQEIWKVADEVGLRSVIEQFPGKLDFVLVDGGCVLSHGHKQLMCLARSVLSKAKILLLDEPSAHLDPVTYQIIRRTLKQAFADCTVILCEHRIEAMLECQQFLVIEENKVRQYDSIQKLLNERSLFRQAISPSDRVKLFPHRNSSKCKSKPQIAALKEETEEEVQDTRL
T2 sequence (P13569 whole entry G551D): as the sequence (P13569 whole entry G178R) above, with R178G, G551D counted along it
T1 sequence (P13569 with tags, fused parts or gaps DEL508-508): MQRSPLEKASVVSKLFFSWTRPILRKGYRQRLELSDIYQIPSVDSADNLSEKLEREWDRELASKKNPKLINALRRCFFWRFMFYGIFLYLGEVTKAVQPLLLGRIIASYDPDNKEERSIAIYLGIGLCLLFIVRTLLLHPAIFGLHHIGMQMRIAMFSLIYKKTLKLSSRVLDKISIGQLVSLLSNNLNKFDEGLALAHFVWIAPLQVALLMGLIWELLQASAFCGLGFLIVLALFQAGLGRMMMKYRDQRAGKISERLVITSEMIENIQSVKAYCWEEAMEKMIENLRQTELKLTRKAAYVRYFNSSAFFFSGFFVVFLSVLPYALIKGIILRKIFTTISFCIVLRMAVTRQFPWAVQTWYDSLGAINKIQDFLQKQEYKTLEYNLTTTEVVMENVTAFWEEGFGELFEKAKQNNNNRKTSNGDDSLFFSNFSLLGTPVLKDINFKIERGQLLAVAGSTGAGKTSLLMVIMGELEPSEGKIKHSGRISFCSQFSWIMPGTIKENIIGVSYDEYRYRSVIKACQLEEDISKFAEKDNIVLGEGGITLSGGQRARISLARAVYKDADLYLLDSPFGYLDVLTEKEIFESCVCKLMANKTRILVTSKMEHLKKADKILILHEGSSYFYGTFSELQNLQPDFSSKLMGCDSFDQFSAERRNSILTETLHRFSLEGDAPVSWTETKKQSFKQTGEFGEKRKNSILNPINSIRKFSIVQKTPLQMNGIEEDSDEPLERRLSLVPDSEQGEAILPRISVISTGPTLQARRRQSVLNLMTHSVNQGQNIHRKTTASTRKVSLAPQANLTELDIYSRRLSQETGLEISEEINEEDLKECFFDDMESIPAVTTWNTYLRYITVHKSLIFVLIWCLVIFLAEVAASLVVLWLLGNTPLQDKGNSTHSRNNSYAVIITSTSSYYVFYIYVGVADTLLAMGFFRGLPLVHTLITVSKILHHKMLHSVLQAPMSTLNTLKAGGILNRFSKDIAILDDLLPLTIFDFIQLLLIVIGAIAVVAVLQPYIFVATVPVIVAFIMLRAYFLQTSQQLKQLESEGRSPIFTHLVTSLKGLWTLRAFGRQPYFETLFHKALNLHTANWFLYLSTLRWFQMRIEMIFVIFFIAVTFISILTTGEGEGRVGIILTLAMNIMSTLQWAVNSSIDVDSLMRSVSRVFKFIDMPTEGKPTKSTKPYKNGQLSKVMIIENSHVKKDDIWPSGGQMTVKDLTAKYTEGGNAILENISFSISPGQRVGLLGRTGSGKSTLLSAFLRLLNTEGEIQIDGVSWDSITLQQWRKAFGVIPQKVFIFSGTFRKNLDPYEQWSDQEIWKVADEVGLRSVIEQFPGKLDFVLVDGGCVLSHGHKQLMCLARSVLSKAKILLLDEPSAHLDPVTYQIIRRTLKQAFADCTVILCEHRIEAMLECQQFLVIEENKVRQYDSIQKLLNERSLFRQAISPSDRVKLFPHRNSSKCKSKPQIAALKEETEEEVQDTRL
T4 sequence (P13569 whole entry G1349D): as the sequence (P13569 whole entry G178R) above, with R178G, G1349D counted along it
T6 sequence (P13569 whole entry R117H): as the sequence (P13569 whole entry G178R) above, with R117H, R178G counted along it
T5 sequence (P13569 whole entry S549N): as the sequence (P13569 whole entry G178R) above, with R178G, S549N counted along it

Row | Compound | EC50 (CFTR ΔF508 mutant) | EC50 (CFTR G551D mutant) | EC50 (CFTR-G178R) | EC50 (CFTR-G1349D) | EC50 (CFTR-S549N) | EC50 (CFTR-R117H)
1 | COc1cc(S(=O)(=O)c2cc(C(N)=O)c(NC(=O)C(C)(C)O)s2)c(OC(F)F)cc1F [Compound 402, 5-[2-(difluoromethoxy)-4-fluoro-5-methoxy-phenyl] sulfonyl-2-[(2-hydroxy-2-methyl-propanoyl)amino] thiophene-3-carboxamide] | 0.0256 µM | 1.4 µM | 0.248 µM | 3.33 µM | 1.02 µM | 0.273 µM
2 | CC(C)(O)C(=O)Nc1sc(S(=O)(=O)c2cc(F)c(F)cc2OC(F)F)cc1C(N)=O [Compound 404, 5-[2-(difluoromethoxy)-4,5-difluoro-phenyl] sulfonyl-2-[(2-hydroxy-2-methyl-propanoyl)amino] thiophene-3-carboxamide] | 0.0143 µM | 0.553 µM | 0.126 µM | 1.49 µM | 1.81 µM | 0.283 µM
3 | CC(C)(O)C(=O)Nc1sc(S(=O)(=O)c2c(F)cc(F)cc2OC(F)F)cc1C(N)=O [Compound 405, 5-[2-(difluoromethoxy)-4,6-difluoro-phenyl]sulfonyl-2-[(2-hydroxy-2-methyl-propanoyl)amino] thiophene-3-carboxamide] | 0.0196 µM | 4.52 µM | > 1 µM | 3.33 µM | 1.37 µM | 0.155 µM
4 | CC(C)(O)C(=O)Nc1sc(S(=O)(=O)c2ncc(C(F)(F)F)cc2F)cc1C(N)=O [Compound 410, 5-[[3-fluoro-5-(trifluoromethyl)-2-pyridyl]sulfonyl]-2-[(2-hydroxy-2-methyl-propanoyl)amino] thiophene-3-carboxamide] | 0.0141 µM | 0.708 µM | 0.0801 µM | 0.12 µM | 0.104 µM | 0.139 µM
5 | CC(C)(O)C(=O)Nc1sc(S(=O)(=O)c2nc(C(F)(F)F)ccc2C(F)(F)F)cc1C(N)=O [Compound 412, 5-[[3,6-bis(trifluoromethyl)-2-pyridyl]sulfonyl]-2-[(2-hydroxy-2-methyl-propanoyl)amino] thiophene-3-carboxamide] | 0.00357 µM | 0.0964 µM | 0.0111 µM | 0.00747 µM | 0.0113 µM | 0.0354 µM
6 | COc1cc(C)cc(S(=O)(=O)c2cc(C(N)=O)c(NC(=O)C(C)(C)O)s2)c1 [Compound 416, 2-[(2-hydroxy-2-methyl-propanoyl)amino]-5-(3-methoxy-5-methyl-phenyl)sulfonyl-thiophene-3-carboxamide] | 0.0177 µM | 0.773 µM | 0.268 µM | 0.353 µM | 1.78 µM | 0.351 µM
7 | COc1cc(S(=O)(=O)c2cc(C(N)=O)c(NC(=O)C(C)(C)O)s2)c(OC(F)F)cn1 [Compound 418, 5-[[5-(difluoromethoxy)-2-methoxy-4-pyridyl]sulfonyl]-2-[(2-hydroxy-2-methyl-propanoyl)amino] thiophene-3-carboxamide] | 0.00818 µM | 0.39 µM | 0.0144 µM | 0.0184 µM | 0.184 µM | 0.192 µM
8 | COc1cc(C#N)cc(S(=O)(=O)c2cc(C(N)=O)c(NC(=O)C(C)(C)O)s2)c1OC(F)F [Compound 419, 5-[5-cyano-2-(difluoromethoxy)-3-methoxy-phenyl]sulfonyl-2-[(2-hydroxy-2-methyl-propanoyl)amino] thiophene-3-carboxamide] | 0.0266 µM | 0.678 µM | 0.25 µM | 0.617 µM | 0.621 µM | 0.465 µM
9 | CC(C)c1nn(C)cc1S(=O)(=O)c1cc(C(N)=O)c(NC(=O)C(C)(C)O)s1 [Compound 421, 2-[(2-hydroxy-2-methyl-propanoyl)amino]-5-(3-isopropyl-1-methyl-pyrazol-4-yl)sulfonyl-thiophene-3-carboxamide] | 0.069 µM | 5.53 µM | 1.59 µM | 1.54 µM | 1.11 µM | 1.93 µM

More lines, now with the values ahead:

Row | EC50 (CFTR ΔF508 mutant) | EC50 (CFTR G551D mutant) | EC50 (CFTR-G178R) | EC50 (CFTR-G1349D) | EC50 (CFTR-S549N) | EC50 (CFTR-R117H) | Compound
10 | 0.0506 µM | 3.33 µM | 1.53 µM | 3.33 µM | 2.86 µM | 0.262 µM | CC(C)(O)C(=O)Nc1sc(S(=O)(=O)c2ccc(C#N)cc2C(F)(F)F)cc1C(N)=O [Compound 407, 5-[4-cyano-2-(trifluoromethyl)phenyl] sulfonyl-2-[(2-hydroxy-2-methyl-propanoyl)amino] thiophene-3-carboxamide]
11 | 0.011 µM | 1.77 µM | 0.0427 µM | 0.149 µM | 0.525 µM | 0.535 µM | CC(C)(O)C(=O)Nc1sc(S(=O)(=O)c2cccc(C(F)(F)F)c2)cc1C(N)=O [Compound 408, 2-[(2-hydroxy-2-methyl-propanoyl)amino]-5-[3-(trifluoromethyl)phenyl]sulfonyl-thiophene-3-carboxamide]
12 | 0.0611 µM | 4.92 µM | 0.136 µM | 1.04 µM | 0.861 µM | 0.488 µM | CC(C)(O)C(=O)Nc1sc(S(=O)(=O)c2ncccc2C(F)(F)F)cc1C(N)=O [Compound 411, 2-[(2-hydroxy-2-methyl-propanoyl)amino]-5-[[3-(trifluoromethyl)-2-pyridyl]sulfonyl] thiophene-3-carboxamide]
13 | 0.0128 µM | 1.48 µM | 0.0447 µM | 0.134 µM | 0.0647 µM | 0.0711 µM | Cc1ccc(C(F)(F)F)c(S(=O)(=O)c2cc(C(N)=O)c(NC(=O)C(C)(C)O)s2)n1 [Compound 413, 2-[(2-hydroxy-2-methyl-propanoyl)amino]-5-[[6-methyl-3-(trifluoromethyl)-2-pyridyl]sulfonyl] thiophene-3-carboxamide]
14 | 0.00805 µM | 0.197 µM | 0.11 µM | 0.095 µM | 0.146 µM | 0.0972 µM | COc1ccc(C(F)(F)F)c(S(=O)(=O)c2cc(C(N)=O)c(NC(=O)C(C)(C)O)s2)n1 [Compound 420, 2-[(2-hydroxy-2-methyl-propanoyl)amino]-5-[[6-methoxy-3-(trifluoromethyl)-2-pyridyl]sulfonyl] thiophene-3-carboxamide]
15 | 0.0153 µM | 0.872 µM | 0.0644 µM | 0.212 µM | 0.542 µM | 0.448 µM | CC(C)(O)C(=O)Nc1sc(S(=O)(=O)c2ccc(C(F)(F)F)c(F)c2)cc1C(N)=O [Compound 422, 5-[3-fluoro-4-(trifluoromethyl)phenyl]sulfonyl-2-[(2-hydroxy-2-methyl-propanoyl)amino] thiophene-3-carboxamide]
16 | 0.0109 µM | 0.842 µM | 0.162 µM | 1.11 µM | 1.91 µM | 0.249 µM | CC(C)(O)C(=O)Nc1sc(S(=O)(=O)c2ccc(C(F)(F)F)c(Cl)n2)cc1C(N)=O [Compound 423, 5-[[6-chloro-5-(trifluoromethyl)-2-pyridyl]sulfonyl]-2-[(2-hydroxy-2-methyl-propanoyl)amino] thiophene-3-carboxamide]
17 | 0.00319 µM | 0.403 µM | 0.178 µM | 2.43 µM | 0.332 µM | 0.0973 µM | CC(C)(O)C(=O)Nc1sc(S(=O)(=O)c2nc(Cl)ccc2C(F)(F)F)cc1C(N)=O [Compound 424, 5-[[6-chloro-3-(trifluoromethyl)-2-pyridyl]sulfonyl]-2-[(2-hydroxy-2-methyl-propanoyl)amino] thiophene-3-carboxamide]
18 | 0.0069 µM | 0.762 µM | 1.27 µM | 0.364 µM | 0.715 µM | 0.144 µM | CC(C)(O)C(=O)Nc1sc(S(=O)(=O)c2ccsc2C(F)(F)F)cc1C(N)=O [Compound 425, 2-[(2-hydroxy-2-methyl-propanoyl)amino]-5-[[2-(trifluoromethyl)-3-thienyl]sulfonyl] thiophene-3-carboxamide]
